Experimental findings from paper PMC10515640, “Structure-Based Optimization of Covalent, Small-Molecule Stabilizers of the 14-3-3σ/ERα Protein–Protein Interaction from Nonselective Fragments” (Journal of the American Chemical Society, 2023) are described below.

Bounds are passed on as bounds.

One test concerns the target T1, 14-3-3σ (Homo sapiens, UniProt P31947).
T1 construct: The 14-3-3 σ isoform (full-length for mass spectrometry and fluorescence anisotropy assays, ΔC for crystallography); made in house; host or cells: E. coli Rosetta 2(DE3)pLysS, pPROEX HTb vector
T1 sequence (P31947 1-248): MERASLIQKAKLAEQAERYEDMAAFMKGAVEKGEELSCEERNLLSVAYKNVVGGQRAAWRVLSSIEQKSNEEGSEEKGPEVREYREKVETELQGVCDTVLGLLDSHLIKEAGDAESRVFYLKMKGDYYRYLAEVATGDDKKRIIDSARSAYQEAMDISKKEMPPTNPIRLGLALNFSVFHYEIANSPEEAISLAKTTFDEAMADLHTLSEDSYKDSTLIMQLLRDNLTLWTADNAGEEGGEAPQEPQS
As to the kind of experiment: Mass spectrometry dose response, compound binding to 14-3-3σ in the absence of peptide (apo). The following applies: 100 nM compound, 100 nM 14-3-3σ. An excerpt: (§1) Two orthogonal assays were developed for screening. For the primary assay, mass spectrometry (MS) was used to monitor the formation of the covalent bond between the compound and the native cysteine (Cys38 on 14-3-3σ) (Figure 1D). The assay was first performed in the absence of peptide to determine binding to 14-3-3σ only (apo screening, D1) and then in the presence of both 14-3-3σ and the peptide as an indication of how much the peptide stabilized compound binding (D2). […] As a secondary assay, fluorescence anisotropy (FA) was used. In this case, compounds were titrated to mixtures of 14-3-3σ and FAM-labeled peptides. […] Thus, the two assays are highly complementary; the MS assay reports on compound binding and the FA assay reports on peptide binding. […]
(§2) Mass spectrometry dose response assays were performed on a Waters Acquity UPLC/ Xevo G2-XS Q-Tof mass spectrometer. A Waters UPLC Protein BEH-C4 Column (300 Å, 1.7 μm, 2.1 mm x 50 mm) was used to desalt the samples prior to application on the mass spectrometer. For 19-point MS dose responses, 50 mM compound stocks in DMSO were serially diluted in 3-fold increment in a master plate, then 1000 nl of the compounds were transferred in the assay plates. Master mixes containing 100 nM full-length wild type 14-3-3σ in the absence or presence of […]
(§3) Assay buffer was TRIS (10 mM, pH 8.0) and final volume per well was 50 μl, with final top concentration of compounds dose response series at 1 mM. The reaction mixtures were incubated for 1h at rt before subjected to MS. Four measurements (1h, 8h, 16h, 24h) were performed for time-course experiments. The injection volume for each sample was 6 μl. 24 μl of sample were needed for the time-course experiments, so the total volume in the assay plate was adjusted to 50 μl, to account for the dead volume in the injections. Data collection and automated processing followed a custom workflow, as previously described.1 z Plots were created using GraphPad Prism with the log(agonist) vs. response (variable slope, four parameters) fitting model. […]

Test [1] concerns the target T2, 14-3-3σ/ERα (Homo sapiens, UniProt P03372+P31947).
T2 construct: The 14-3-3 σ isoform (full-length for mass spectrometry and fluorescence anisotropy assays, ΔC for crystallography); made in house; host or cells: E. coli Rosetta 2(DE3)pLysS, pPROEX HTb vector
As to the kind of experiment: Mass spectrometry dose response, compound binding to 14-3-3σ in the presence of ERα phosphopeptide. The following applies: 100 nM compound, 100 nM 14-3-3σ, ERα-peptide 2 µM.
Description: as §1, §2, §3

Test [2] deals with T3, 14-3-3σ/C-RAF (Homo sapiens, UniProt P31947).
T3 construct: The 14-3-3 σ isoform (full-length for mass spectrometry and fluorescence anisotropy assays, ΔC for crystallography); made in house; host or cells: E. coli Rosetta 2(DE3)pLysS, pPROEX HTb vector
T3 sequence (P31947 1-248): T1 sequence (P31947 1-248)
Briefly: Mass spectrometry dose response, compound binding to 14-3-3σ in the presence of C-RAF phosphopeptide. The conditions noted are these: 100 nM compound, 100 nM 14-3-3σ, C-RAF peptide 18 µM.
Description: as §1, §2, §3

Test [3] has as its target T2, 14-3-3σ/ERα. As to the kind of experiment: Fluorescence anisotropy compound titration, FAM-labeled ERα peptide. The format is binding. The following applies: 10 nM ERα-FAM labeled peptide, 1 µM 14-3-3σ, overnight incubation (24 h); read-out: EC50 value ERα (FA compound titration).
Description: as §1
(§4) diluted in buffer (10 mM HEPES, pH 7.5, 150 mM NaCl, 0.1% Tween20, 1 mg/mL Bovine Serum Albumin (BSA; Sigma-Aldrich). Final DMSO in the assay was always 1%. Dilution series of 14-3-3 proteins or compounds were made in […]
(§5) Compound titrations were made by titrating the compound in a 2-fold dilution series (starting at 500 or 1000 µM) to a mix of fluorescein-labeled peptide (10 nM) and 14-3-3σ (concentration at approximately the EC20 to EC30 value of the protein-peptide complex; 1 µM for ERα and 5 µM for C-RAF). Using the ~EC25 value makes the assay sensitive for measuring an increase in PPI formation. Fluorescence anisotropy measurements were performed directly and after overnight incubation at room temperature. […]
(§6) Wells containing only FAM-peptide were used to set as G-factor at 35 mP. Data reported are at endpoint. EC50 and apparent Kd values were obtained from fitting the data with a four-parameter logistic model (4PL) in GraphPad Prism 7 for Windows. Data was obtained and averaged based on either three (compound titrations) or two (protein titrations) independent experiments.
(Polarisation of emitted light reports the rotation of a fluorescent probe.)

Test [4] has as its target T3, 14-3-3σ/C-RAF. As to the kind of experiment: Fluorescence anisotropy compound titration, FAM-labeled C-RAF peptide. It counts as binding. The conditions noted are these: 10 nM C-RAF-FAM labeled peptide, 5 µM 14-3-3σ, overnight incubation; read-out: EC50 value C-RAF (FA compound titration).
Description: as §1, §4, §5, §6

For the compound `CC(C)(Oc1ccc(Cl)cc1)C(=O)N1CCC(CCCNC(=O)CCl)CC1` [compound 29], at 14-3-3σ, the “Percentage (%) bound of compound to 14-3-3σ, APO 1h” value (from here on “Percentage (%) bound … APO 1h”) is listed as 0%; the “Percentage (%) bound of compound to 14-3-3σ, APO 8h” value (from here on “Percentage (%) bound … APO 8h”) was determined as 0%; the “Percentage (%) bound of compound to 14-3-3σ, APO 16h” value (from here on “Percentage (%) bound … APO 16h”) stood at 0%; the “Percentage (%) bound of compound to 14-3-3σ, APO 24h” value (shortened to “Percentage (%) bound … APO 24h”) stood at 0%. For the same compound, at 14-3-3σ/ERα [1], the “Percentage (%) bound of compound to 14-3-3σ, ERα 1h” value (“Percentage (%) bound … ERα 1h” below) was 0.4%; the “Percentage (%) bound of compound to 14-3-3σ, ERα 8h” value (“Percentage (%) bound … ERα 8h” for short) was 1.0%; the “Percentage (%) bound of compound to 14-3-3σ, ERα 16h” value (from here on “Percentage (%) bound … ERα 16h”) is on record as 3.1%; the “Percentage (%) bound of compound to 14-3-3σ, ERα 24h” value (shortened to “Percentage (%) bound … ERα 24h”) amounted to 11.0%. Besides, at 14-3-3σ/C-RAF [2], the “Percentage (%) bound of compound to 14-3-3σ, CRAF 1h” value (“Percentage (%) bound … CRAF 1h” below) stood at 1.0% and the “Percentage (%) bound of compound to 14-3-3σ, CRAF 8h” value (from here on “Percentage (%) bound … CRAF 8h”) came to 1.0%. For the same compound, the “Percentage (%) bound of compound to 14-3-3σ, CRAF 24h” value (shortened to “Percentage (%) bound … CRAF 24h”) at 14-3-3σ/C-RAF [2] (24h) is 18.9%. Besides, the “Percentage (%) bound … CRAF 24h” value at 14-3-3σ/C-RAF [2] (head prints 24h) is 7.1%. Besides, at 14-3-3σ/ERα [3], the EC50 was 9 ± 0.4 µM. Besides, at 14-3-3σ/C-RAF [4], the EC50 was 142 ± 40 µM.
For `CC(C)(Nc1ccc(Cl)cc1)C(=O)N1CCC(CNC(=O)CCl)CC1` [compound 84], on 14-3-3σ, the “Percentage (%) bound … APO 1h” value was 0%; the “Percentage (%) bound … APO 8h” value turned out to be 0%; the “Percentage (%) bound … APO 16h” value is reported as 1.0%; the “Percentage (%) bound … APO 24h” value worked out at 5.8%. At 14-3-3σ/ERα [1], the “Percentage (%) bound … ERα 1h” value is given as 0.9%; the “Percentage (%) bound … ERα 8h” value turned out to be 2.8%; the “Percentage (%) bound … ERα 16h” value was 7.5%; the “Percentage (%) bound … ERα 24h” value was 19.0%. Besides, at 14-3-3σ/C-RAF [2], the “Percentage (%) bound … CRAF 1h” value is reported as 0.8% and the “Percentage (%) bound … CRAF 8h” value was determined as 1.0%. The “Percentage (%) bound … CRAF 24h” value at 14-3-3σ/C-RAF [2] (24h) was 3.3%. Besides, at 14-3-3σ/C-RAF [2] (head prints 24h), the “Percentage (%) bound … CRAF 24h” value turned out to be 2.9%. In addition, on 14-3-3σ/ERα [3], the EC50 was determined as 55 ± 2 µM. Moreover, the EC50 on 14-3-3σ/C-RAF [4] was over 150 µM.
For the compound `O=C(CCl)NCC1CCN(C(=O)C2(Oc3ccc(Cl)cc3)CC2)CC1` [compound 93], on 14-3-3σ, the “Percentage (%) bound … APO 1h” value is reported as 0%; the “Percentage (%) bound … APO 8h” value stood at 0%; the “Percentage (%) bound … APO 16h” value stood at 0%; the “Percentage (%) bound … APO 24h” value is 0%. For the same compound, at 14-3-3σ/ERα [1], the “Percentage (%) bound … ERα 1h” value worked out at 0%; the “Percentage (%) bound … ERα 8h” value amounted to 0.9%; the “Percentage (%) bound … ERα 16h” value is given as 1.1%; the “Percentage (%) bound … ERα 24h” value is on record as 1.7%. Also, at 14-3-3σ/C-RAF [2], the “Percentage (%) bound … CRAF 1h” value worked out at 0.1% and the “Percentage (%) bound … CRAF 8h” value came to 0.1%. Moreover, the “Percentage (%) bound … CRAF 24h” value at 14-3-3σ/C-RAF [2] (24h) is on record as 2.3%. Moreover, the “Percentage (%) bound … CRAF 24h” value at 14-3-3σ/C-RAF [2] (head prints 24h) stood at 0.1%. Further, the EC50 on 14-3-3σ/ERα [3] was 68 ± 2 µM. Further, the EC50 on 14-3-3σ/C-RAF [4] was over 150 µM.
